The species named for assay [1] is Bos taurus. The assay is described as follows: Inhibition of Protein phosphatase 2B (PP2B) at 1 mM.
Assay [2] is filed under the species Bos taurus. As to the kind of experiment: Inhibition of Protein phosphatase 2B (PP2B) at 0.1 mM.
For assay [3], the species on record is Oryctolagus cuniculus. The assay is described as follows: Inhibition of Protein phosphatase 2A1 (PP2A1) at 0.1 mM.
The species named for assay [4] is Oryctolagus cuniculus. The assay is described as follows: Inhibition of Protein phosphatase 1 at 0.1 mM.
Assay [5] is filed under the species Oryctolagus cuniculus. As to the kind of experiment: Inhibition of Protein phosphatase 1 at 1 mM.
The species named for assay [6] is Oryctolagus cuniculus. As to the kind of experiment: Inhibition of Protein phosphatase 2A1 (PP2A1) at 1 mM.

Turning to `CC(=O)OCC1CC2OC1C1C(=O)OC(=O)C21` (centres undefined), the inhibition is 85% in the assay filed under Bos taurus [1]; 20% in the assay filed under Bos taurus [2]; 70% in the assay filed under Oryctolagus cuniculus [3]; 90% in the assay listed under Oryctolagus cuniculus [4]; 100% in the assay listed under Oryctolagus cuniculus [5]; 98% in the assay filed under Oryctolagus cuniculus [6].

Regarding `O=C(O)C1C2CCC3(COC(=O)C13)O2` (centres undefined), the inhibition in the assay listed under Bos taurus [1] came to 20%; in the assay filed under Bos taurus [2], 18%; in the assay filed under Oryctolagus cuniculus [3], 8%; in the assay listed under Oryctolagus cuniculus [4], 9%; in the assay filed under Oryctolagus cuniculus [5] it was 20%; in the assay listed under Oryctolagus cuniculus [6] it was 8%.

Take `CC(=O)OCC1=CC2OC1C(C(=O)O)C2C(=O)O` (centres undefined): the inhibition in the assay listed under Bos taurus [1] is 89%; in the assay listed under Bos taurus [2], 20%; in the assay filed under Oryctolagus cuniculus [3], 40%; in the assay filed under Oryctolagus cuniculus [4], 50%; in the assay filed under Oryctolagus cuniculus [5] it was 80%; in the assay filed under Oryctolagus cuniculus [6], 90%.

`C[C@@]12C(=O)OC(=O)[C@]1(C)C1CCC2O1`: the inhibition in the assay listed under Bos taurus [1] was determined as 38%; in the assay filed under Bos taurus [2], 15%; in the assay filed under Oryctolagus cuniculus [3], 85%; in the assay listed under Oryctolagus cuniculus [4], 85%; in the assay filed under Oryctolagus cuniculus [5], 90%; in the assay listed under Oryctolagus cuniculus [6], 98%.

With `O=C1OC(=O)C2C3OC(C=C3COC3CCCCC3)C12` (centres undefined), the inhibition in the assay filed under Bos taurus [1] was 70%; in the assay listed under Bos taurus [2], 30%; in the assay filed under Oryctolagus cuniculus [3] it was 80%; in the assay listed under Oryctolagus cuniculus [4], 50%; in the assay filed under Oryctolagus cuniculus [5], 60%; in the assay listed under Oryctolagus cuniculus [6], 100%.

As to `CC(=O)OCC1=CC2OC1C1C(=O)OC(=O)C21` (centres undefined), the inhibition in the assay listed under Bos taurus [1] worked out at 90%; in the assay filed under Bos taurus [2], 25%; in the assay listed under Oryctolagus cuniculus [3], 60%; in the assay filed under Oryctolagus cuniculus [4] it was 59%; in the assay listed under Oryctolagus cuniculus [5], 92%; in the assay listed under Oryctolagus cuniculus [6] it was 98%.

`O=C1OC(=O)C2C3CCC(O3)C12` (centres undefined): the inhibition in the assay filed under Bos taurus [1] stood at 98%; in the assay listed under Bos taurus [2] it was 35%; in the assay filed under Oryctolagus cuniculus [3] it was 94%; in the assay listed under Oryctolagus cuniculus [4], 95%; in the assay listed under Oryctolagus cuniculus [5], 100%; in the assay listed under Oryctolagus cuniculus [6], 100%.

For `CC(=O)OCC12C=CC(O1)C1C(=O)OC(=O)C12` (centres undefined), the inhibition in the assay listed under Bos taurus [1] is 50%; in the assay listed under Bos taurus [2], 10%; in the assay listed under Oryctolagus cuniculus [3] it was 5%; in the assay listed under Oryctolagus cuniculus [4] it was 5%; in the assay filed under Oryctolagus cuniculus [5], 30%; in the assay listed under Oryctolagus cuniculus [6], 40%.

As to `O=C1OC(=O)C2C3C=CC(O3)C12` (centres undefined), the inhibition in the assay listed under Bos taurus [1] is 99%; in the assay filed under Bos taurus [2], 40%; in the assay listed under Oryctolagus cuniculus [3] it was 95%; in the assay filed under Oryctolagus cuniculus [4] it was 95%; in the assay filed under Oryctolagus cuniculus [5] it was 98%; in the assay filed under Oryctolagus cuniculus [6] it was 95%.

For the compound `CC(=O)OCC12CCC(O1)C1C(=O)OC(=O)C12` (centres undefined), the inhibition in the assay filed under Bos taurus [1] turned out to be 45%; in the assay filed under Bos taurus [2] it was 30%; in the assay listed under Oryctolagus cuniculus [3] it was 5%; in the assay listed under Oryctolagus cuniculus [4] it was 20%; in the assay filed under Oryctolagus cuniculus [5] it was 70%; in the assay filed under Oryctolagus cuniculus [6], 50%.

Turning to `CC12CCC(C)(O1)C(C(=O)O)C2C(=O)O` (centres undefined), the inhibition worked out at 18% in the assay listed under Bos taurus [1]; 17% in the assay filed under Bos taurus [2]; 0% in the assay listed under Oryctolagus cuniculus [3]; 0% in the assay listed under Oryctolagus cuniculus [4]; 1% in the assay listed under Oryctolagus cuniculus [5]; 2% in the assay listed under Oryctolagus cuniculus [6].

As to `O=C1OC(=O)C2C3OC(CC3COC3CCCCC3)C12` (centres undefined), the inhibition stood at 100% in the assay filed under Bos taurus [1]; 40% in the assay listed under Bos taurus [2]; 75% in the assay filed under Oryctolagus cuniculus [3]; 70% in the assay listed under Oryctolagus cuniculus [4]; 90% in the assay filed under Oryctolagus cuniculus [5]; 100% in the assay filed under Oryctolagus cuniculus [6].

Consider `CC(=O)OCC12C=CC(O1)C(C(=O)O)C2C(=O)O` (centres undefined), for which the inhibition turned out to be 60% in the assay filed under Bos taurus [1]; 10% in the assay filed under Bos taurus [2]; 0% in the assay filed under Oryctolagus cuniculus [3]; 5% in the assay filed under Oryctolagus cuniculus [4]; 40% in the assay filed under Oryctolagus cuniculus [5]; 25% in the assay listed under Oryctolagus cuniculus [6].

As to `O=C1OC(=O)C2C1C1C=CC2(CO)O1` (centres undefined), the inhibition in the assay filed under Bos taurus [1] is 50%; in the assay filed under Bos taurus [2], 10%; in the assay listed under Oryctolagus cuniculus [3], 5%; in the assay listed under Oryctolagus cuniculus [4], 8%; in the assay filed under Oryctolagus cuniculus [5], 18%; in the assay listed under Oryctolagus cuniculus [6] it was 12%.

The record behind these values is ChEMBL document CHEMBL1130480, “Structure-activity relationship of cantharidin derivatives to protein phosphatases 1, 2A1, and 2B” (Bioorg Med Chem Lett, 1997).
